Measurements reported in patent US9089139B2, “Agri-horticultural pest control compositions comprising 4-(3-butynyl)aminopyrimidine derivatives” (SDS Biotech K. K., priority 2011, dated 2015).
Where two headings read alike, the source gives them in different places.

Legend:
[1] = tested on: Sphaerotheca fuliginea; assay: Test 1: control effect against powdery mildew on cucumber (control index); assay type: in vivo, Sphaerotheca fuliginea on cucumber (variety: SAGAMI HANJIRO); details: for pest or weed control at 10 ppm: read-out: Control index; for pest or weed control at 0.5 ppm: test concentration 0.5 ppm
Description: (§1) The expected efficacies of the combinations of the individual active compounds can be determined using Colby's formula, which is described below [Colby, S. R. “Calculating synergistic and antagonistic responses of herbicide combinations,” Weeds 15, 20-22 (1967)]: Colby's formula: E=A+B−(A×B/100) E is the predicted efficacy (control index) with reference to the untreated control when using the mixture of the active compound X at the concentration x and the active compound Y at the concentration y; A is the efficacy (control index) with respect to the untreated control when using the active compound X at the concentration x; B is the efficacy (control index) with respect to the untreated control when using the active compound […] at the concentration y.
(§2) Potted young seedlings of cucumber (variety: SAGAMI HANJIRO; in two-leaf stage) were sprayed with invention compounds formulated in accordance with Preparations and the existing antimicrobial active compounds listed in Table 3 (all compounds are identified by associated letters of the alphabet) after they were diluted with water to predetermined concentrations so that they would serve as active compounds; a spray gun was used to provide a spray rate of 15 ml per pot. After air-drying, the seedlings were inoculated with conida of Sphaerotheca fuliginea by spraying a suspension of the conida. Thereafter, the seedlings were cultivated for 14 days in a greenhouse and the percentage of diseased area was investigated for each leaf; based on the result of this investigation, the control index was calculated using the following formula: Control index={(percentage of diseased area on the untreated control−percentage of diseased area on treated sample)/percentage of diseased area on the untreated control}×100

[2] = tested on: Pseudoperonospora cubensis; assay: Control effect against Pseudoperonospora cubensis on cucumber seedlings (control index as in Test 1); assay type: in vivo; details: for pest or weed control at 0.05 ppm: test concentration 0.05 ppm
Description: as §1, §2
Potted young seedlings of cucumber (variety: SAGAMI HANJIRO; in two-and-a-half leaf stage) were sprayed with invention agri-horticulatural pest control compositions formulated in accordance with Preparations and the existing antimicrobial active compounds listed in Table 5 (all compounds are identified by associated letters of the alphabet) after they were diluted with water to predetermined concentrations so that they would serve as active compounds; a spray gun was used to provide a spray rate of 15 ml per pot. After air-drying, the seedlings were inoculated with conida of Pseudoperonospora cubensis by spraying a suspension of the conida. Immediately thereafter, the seedlings were held for a day under the conditions of 21° C. and 100% humidity. The seedlings were then placed at room temperature and 3 days later, the percentage of diseased area was investigated for each leaf; based on the result of this investigation, the control index was calculated as in Test 1.

[3] = tested on: Aphis gossypii; assay: Test 3: insecticidal effect on Aphis gossypii (mortality rate); assay type: in vivo
Description: as §1
Invention compounds and the existing insecticidal active compounds shown in Table 7 (hereinbelow, the compound names are identified by associated letters of the alphabet) were diluted with water to predetermined concentrations so that they would serve as active ingredients. Cucumber leaves with a diameter of 3 cm were placed on plastic cups filled with 0.5% soft agar and five adult aphids were released to feed on the leaves. After standing overnight, the adult insects were removed and the number of nymph as an offspring was counted; each of the prepared liquid samples of insecticide was sprayed in 0.4 ml portions and two days later, the number of dead insects was countd to calculate the mortality rate. The expected efficacies of the combinations of the individual active compounds were calculated by Colby's formula.

[4] = individual active compound, test concentration 10 ppm
[5] = Podosphaera fuliginea, 336 h, individual active compound, test concentration 1 ppm
[6] = individual active compound, test concentration 1 ppm
[7] = Podosphaera fuliginea, 336 h, individual active compound, test concentration 100 ppm
[8] = individual active compound, test concentration 0.1 ppm
[9] = Podosphaera fuliginea, 336 h, individual active compound, test concentration 10 ppm
[10] = Podosphaera fuliginea, 336 h, individual active compound
[11] = Aphis gossypii, 48 h, individual active compound, test concentration 0.1 ppm, read-out: Observed value Mortality rate
[12] = Pseudoperonospora cubensis, 72 h, individual active compound, read-out: Observed value Control index

N#Cc1c(Cl)c(Cl)c(Cl)c(C#N)c1Cl [Aa: Chlorothalonil, chlorothalonil]
pest or weed control at 5 ppm ([1]; Podosphaera fuliginea, 336 h, individual active compound, test concentration 5 ppm): 48% | pest or weed control at 0.5 ppm ([2]; Pseudoperonospora cubensis, 72 h, individual active compound, test concentration 0.5 ppm, read-out: Observed value Control index): 49%

COCC(=O)N(c1c(C)cccc1C)[C@H](C)C(=O)OC [Ba: Metalaxyl M, metalaxyl-M]
Observed value Control index [2, 4]: 35

COC(=O)NC(=S)Nc1ccccc1NC(=S)NC(=O)OC [Ca: Thiophanate-methyl, thiophanate-methyl]
pest or weed control at 2 ppm ([1]; Podosphaera fuliginea, 336 h, individual active compound, test concentration 2 ppm): 40%

CC(C)CC(C)c1sccc1NC(=O)c1cn(C)nc1C(F)(F)F (centres unmarked) [Da: Penthiopyrad, penthiopyrad]
pest or weed control at 1 ppm [1, 5]: 51%

CO/C=C(/C(=O)OC)c1ccccc1Oc1cc(Oc2ccccc2C#N)ncn1 [Ea: Azoxystrobin, azoxystrobin]
Control index ([1]; individual active compound, test concentration 100 ppm): 21 | Observed value Control index [2, 6]: 45

CO/N=C(/C(=O)OC)c1ccccc1COc1ccccc1C [Eb: Kresoxim-methyl, kresoxim-methyl]
pest or weed control at 100 ppm [1, 7]: 29% | pest or weed control at 1 ppm ([2]; Pseudoperonospora cubensis, 72 h, individual active compound, test concentration 1 ppm, read-out: Observed value Control index): 42%

CON=C(C(=O)OC)c1ccccc1CON=C(C)c1cccc(C(F)(F)F)c1 [Ec: Trifloxystrobin, trifloxystrobin]
pest or weed control at 100 ppm [1, 7]: 24%

COC(=O)N(OC)c1ccccc1COc1ccn(-c2ccc(Cl)cc2)n1 [Ed: Pyraclostrobin, pyraclostrobin]
pest or weed control at 100 ppm [1, 7]: 22%

CCC(Nc1ncnc(C)c1Cl)c1ccc(OC(F)F)cc1 (centres unmarked) [Fa: Diflumetorim, diflumetorim]
pest or weed control at 1 ppm [1, 5]: 42%

Cc1ccc(-c2c(Cl)nc(C#N)n2S(=O)(=O)N(C)C)cc1 [Fb: Cyazofamid, cyazofamid]
pest or weed control at 0.1 ppm ([2]; Pseudoperonospora cubensis, 72 h, individual active compound, test concentration 0.1 ppm, read-out: Observed value Control index): 50%

Cc1c(Br)c2ccc(F)cc2n1S(=O)(=O)c1ncn(S(=O)(=O)N(C)C)n1 [Fc: Amisulbrom, amisulbrom]
Observed value Control index [2, 8]: 37

CC1COC(Cn2cncn2)(c2ccc(Oc3ccc(Cl)cc3)cc2Cl)O1 (centres unmarked) [Ha: Difenoconazole, difenoconazole]
pest or weed control at 10 ppm [1, 9]: 27%

CC(C)(C)C(O)(CCc1ccc(Cl)cc1)Cn1cncn1 (centres unmarked) [Hb: Tebuconazole, tebuconazole]
pest or weed control at 10 ppm [1, 9]: 42%

CC(C)(C)C(=O)C(Oc1ccc(Cl)cc1)n1cncn1 (centres unmarked) [Hc: Triadimefon, triadimefon]
pest or weed control at 100 ppm [1, 7]: 21%

CCCOC/C(=N\c1ccc(Cl)cc1C(F)(F)F)n1ccnc1 [Hd: Triflumizole, triflumizole]
pest or weed control at 10 ppm [1, 9]: 39%

CC(Cc1ccc(C(C)(C)C)cc1)CN1C[C@@H](C)O[C@@H](C)C1 (some centres unmarked) [He: Fenpropimorph, fenpropimorph]
pest or weed control at 100 ppm [1, 7]: 12%

Fc1ccc(Oc2ccnc3cc(Cl)cc(Cl)c23)cc1 [Ia: Quinoxyfen, quinoxyfen]
pest or weed control at 1 ppm [1, 5]: 39%

COc1ccc(C(=CC(=O)N2CCOCC2)c2ccc(Cl)cc2)cc1OC [Ja: Dimethomorph, dimethomorph]
pest or weed control at 5 ppm ([2]; Pseudoperonospora cubensis, 72 h, individual active compound, test concentration 5 ppm, read-out: Observed value Control index): 21%

CC(C)OC(=O)N[C@H](C(=O)N[C@H](C)c1nc2ccc(F)cc2s1)C(C)C [Jb: Benthiavalicarb-isopropyl, benthiavalicarb]
pest or weed control at 0.5 ppm ([2]; Pseudoperonospora cubensis, 72 h, read-out: Observed value Control index): 12%

C#CCOc1ccc(CCNC(=O)C(OCC#C)c2ccc(Cl)cc2)cc1OC (centres unmarked) [Jc: Mandipropamid, mandipropamid]
Observed value Control index ([2]; individual active compound, test concentration 0.5 ppm): 21

CSC(=O)c1cccc2nnsc12 [Ma: Acibenzolar-S-methyl, acibenzolar-5-methyl]
Control index [1, 4]: 38

CCNC(=O)NC(=O)/C(C#N)=N/OC [Na: Cymoxanil, cymoxanil]
pest or weed control at 10 ppm ([2]; Pseudoperonospora cubensis, 72 h, individual active compound, test concentration 10 ppm, read-out: Observed value Control index): 45%

Cc1ccc2nc3sc(=O)sc3nc2c1 [Nb: Chinomethionate, chinomethionat]
pest or weed control at 10 ppm ([1]; Podosphaera fuliginea, 336 h): 38%

O=C(Cc1ccccc1)N/C(=N\OCC1CC1)c1c(C(F)(F)F)ccc(F)c1F [Nc: Cyflufenamid, cyflufenamid]
pest or weed control at 1 ppm [1, 5]: 49%

COc1ccccc1N1CCS/C1=C(/C#N)Sc1cc(C(F)(F)F)ccc1F [Nd: Flutianil, flutianil]
Control index [1, 6]: 42

COP(=O)(NC(C)=O)SC (centres unmarked) [P: Acephate, acephate, reference compound]
pest or weed control at 10 ppm ([3]; Aphis gossypii, 48 h, read-out: Observed value Mortality rate): 47%

O=[N+]([O-])NC1=NCCN1Cc1ccc(Cl)nc1 [Q: Imidacloprid, imidacloprid, reference compound]
pest or weed control at 0.01 ppm ([3]; Aphis gossypii, 48 h, individual active compound, test concentration 0.01 ppm, read-out: Observed value Mortality rate): 50%

CCc1nn(C)c(C(=O)NCc2ccc(Oc3ccc(C)cc3)cc2)c1Cl [R: Tolfenpyrad, tolfenpyrad, reference compound]
pest or weed control at 0.5 ppm ([3]; Aphis gossypii, 48 h, individual active compound, test concentration 0.5 ppm, read-out: Observed value Mortality rate): 48%

CC1(C)[C@H](C(=O)O[C@H](C#N)c2cccc(Oc3ccccc3)c2)[C@@H]1/C=C\C(=O)OC(C(F)(F)F)C(F)(F)F [S: Acrinathrin]
Observed value Mortality rate [3, 8]: 35

N#CCNC(=O)c1cnccc1C(F)(F)F [T: Flonicamid, flonicamid, reference compound]
Observed value Mortality rate [3, 6]: 43

CC(=O)N1C(=O)N(NCc2cccnc2)Cc2cc(C(F)(C(F)(F)F)C(F)(F)F)ccc21 [U: Pyrifluquinazon, pyrifluquinazon, reference compound]
Observed value Mortality rate ([3]; individual active compound, test concentration 0.01 ppm): 40

FCc1ccccc1C#CCCNc1ncnc2ccccc12 [compound 99]
pest or weed control at 0.5 ppm [1, 10]: 53% | pest or weed control at 0.1 ppm [3, 11]: 44% | pest or weed control at 0.05 ppm [2, 12]: 46%

FC(F)c1ccccc1C#CCCNc1ncnc2ccccc12 [compound 100]
pest or weed control at 0.5 ppm [1, 10]: 55% | pest or weed control at 0.1 ppm [3, 11]: 40% | pest or weed control at 0.05 ppm [2, 12]: 42%

FC(F)(F)c1ccccc1C#CCCNc1ncnc2ccccc12 [compound 101]
pest or weed control at 0.5 ppm [1, 10]: 56% | pest or weed control at 0.1 ppm [3, 11]: 36% | pest or weed control at 0.05 ppm [2, 12]: 38%

COCc1ccccc1C#CCCNc1ncnc2ccccc12 [compound 133]
pest or weed control at 0.5 ppm [1, 10]: 49% | pest or weed control at 0.1 ppm [3, 11]: 39% | pest or weed control at 0.05 ppm [2, 12]: 41%

COCc1cc(F)ccc1C#CCCNc1ncnc2ccccc12 [compound 139]
pest or weed control at 0.5 ppm [1, 10]: 51% | pest or weed control at 0.1 ppm [3, 11]: 41% | pest or weed control at 0.05 ppm [2, 12]: 43%

COCc1cc(Cl)ccc1C#CCCNc1ncnc2ccccc12 [compound 140]
pest or weed control at 0.5 ppm [1, 10]: 48% | pest or weed control at 0.1 ppm [3, 11]: 43% | pest or weed control at 0.05 ppm [2, 12]: 45%

COCc1cc(C)ccc1C#CCCNc1ncnc2ccccc12 [compound 145]
pest or weed control at 0.5 ppm [1, 10]: 45% | pest or weed control at 0.1 ppm [3, 11]: 35% | pest or weed control at 0.05 ppm [2, 12]: 37%

OCC1=C(C#CCCNc2ncnc3ccccc23)CCCC1 [compound 390]
pest or weed control at 0.5 ppm [1, 10]: 51% | pest or weed control at 0.1 ppm [3, 11]: 41% | pest or weed control at 0.05 ppm [2, 12]: 38%

FCC1=C(C#CCCNc2ncnc3ccccc23)CCCC1 [compound 391]
pest or weed control at 0.5 ppm [1, 10]: 48% | pest or weed control at 0.1 ppm [3, 11]: 43% | pest or weed control at 0.05 ppm [2, 12]: 41%

mancozeb [Ac: Manzeb]
Observed value Control index [2, 6]: 52
